Test results from patent US10035780B2, “Quinazoline scaffold based compounds, pharmaceutical compositions and methods of use thereof” (TECHNION RESEARCH & DEVELOPMENT FOUNDATION LTD., priority 2014, dated 2018).
Entries after “also recorded” stand apart in the source; their conditions may differ. Like-named read-outs stand apart in the source and are kept apart here.

Legend:
R6-2 mice = format: in vivo; conditions: chronic s.c. treatment
Excerpt: R6-2 is a transgenic mouse model for Huntington Disease. Huntington Disease in humans is a hereditary neurodegenerative disease affecting motor performance and finally leading to death of the patients having the disease. R6-2 mice (˜120 CAG repeats B6CBA-Tg(HDexon1)62 Gpb/3J) mice were used for the experiments described below. For this purpose, mice obtained from the Jackson Laboratory (ME) were bred. In particular: males genotype: Hemizygous for Tg(HDexon1)62 Gpb, and females from the wildtype background strain B6CBAF1/J were bred according to the protocol of Jackson Laboratory. The male heterozygote offspring (R6-2 mice) were used for determining life span and motor activity, with and without drug treatment. Drug treatment consisted of daily (5 continuous days a week) subcutaneous injections of mice with 20 μl of: saline (sham control), vehicle DMSO (vehicle control), classic TSPO ligand PK 11195 (15 mg/kg), prior art Compound A (15 mg/kg), Compound 1 (15 mg/kg), and compound 1 (7.5 mg/kg). Drug treatment started on week 5 after birth. Quantities were used according to previous studies regarding TSPO ligands. […]
FIG. 6. […] In particular, from week 9, when the first mice death occurred, until week 16, when all mice were dead, average distance covered in an open field, per session, per experimental group, per week was measured in cm. […]

U118MG cells [1] = test: Protection against cell death induced by glutamate in U118MG cell culture; format: cell-based, human
Description: (§1) Cell cultures of various human glial type cell lines (T98G, U87MG, A172, U118MG), as well as human neuronal type cell lines SH-SY 5Y and Be(2)-C were used to test the new compounds. In addition, the rat glioma cell line C6 was used. PC12 cells originating from rats were used as another cell line displaying neuronal characteristics. The applicants also have produced, by genetic manipulation, a modified rat C6 glial cell strain and a modified human U118MG glial type cell strain, both under-expressing the TSPO, which allows to study TSPO specific effects, including of the compounds of the invention, which can be done according to methods described previously (Weisinger et al. Biochemistry. 2004; 43:12315-21; Levin et al. 2005; Zeno et al., 2009).
The protective capabilities of the compounds of the invention and involvement of the TSPO were tested in cell culture, using cell lines of glial and neuronal type, cultured and testing according to standard methods (Kugler et al. 2008; Zeno et al. 2009; Dadon-Nachum et al. Stem Cell Rev. 2011; 7:664-71). Furthermore, primary cell cultures are also used (Banker, G. et al. Culturing Nerve Cells, 2nd Edition, The MIT Press (1998). Treatments included: (1) exposure to glutamate (35 mM), Abeta(1-42), NH4Cl, CoCl2, and nitric oxide (NO) donors, in order to mimic particular aspects of neurodegeneration; (2) treatment with the novel compounds and with traditional TSPO ligands as comparative treatment; and (3) TSPO knockdown by genetic manipulation.
(§2) Techniques and parameters assayed are summarized here: Total protein levels (Bradford. Anal Biochem. 1976; 72:248-54); TSPO ligand binding assays (Kugler et al. 2008; Levin et al. 2005; Danovich et al. Eur Neuropsychopharmacol. 2008; 18:24-33) cell death, including apoptosis and necrosis and related molecular biological processes (Soustiel et al. Neuropathol Appl Neurobiol. 2008; 34:412-23; Soustiel et al. Exp Neurol. 2008; 214:201-8; Zeno et al. 2009); mitochondrial transmembrane potential collapse (Chelli et al. Biochem Pharmacol. 2004; 68:125-34; Kugler et al. 2008; Zeno et al., 2009; Shargorodsky et al. Apoptosis. 2012; 17:647-65), reactive oxygen species (ROS) generation as a measure of oxidative stress (Veenman et al. 2008; Zeno et al. 2009); TSPO knockdown (Levin et al. 2005; Zeno et al. 2009); expression levels of mitochondrial TSPO and associated proteins (Veenman et al. 2002; Levin et al. 2005; Veenman et al. 2008); gene expression with RT-PCR and microarray analysis (Bode et al. 2012; Veenman et al. 2012). Parameters of inflammation, immune response, migration, and the cell cycle are also tested. All these approaches can also be applied for quality control of the compounds.
The compounds of the invention protect against cell death induced by glutamate in cell culture of U118MG cells of astrocytic origin (FIGS. 1, 2, 3 and 8) or SH SY 6Y cells of neuronal origin (FIG. 4). […] In the control group, 35 mM of glutamate killed ˜60% of the cells.
The experimental setup is explained using FIG. 8B as an example: • 1. Control: Cell death levels are taken as 0% • 2. Glu: Cell death levels induced by glutamate are over 50% • 3. […] Glu+Cpd 5: When Cpd 5 is given as a treatment to counteract cell death induced by glutamate, increasing concentrations of Cpd 5 reduce cell death levels from over 50% to less than 5%.

Stability on storage = format: physicochemical; conditions: several months of storage
PC12 cells = test: Differentiation of PC12 cells to neuron like cells, with glutamate; format: cell-based, rat; conditions: 5 days
Description: as §1
Briefly, PC-12 cells were exposed to Cpd 1, in combination with glutamate, basically as described for the cell cultures of Example 1, and remained under that condition for 5 days.

U118MG cells [2] = test: ROS generation at mitochondrial levels induced by glutamate (NAO dye); format: cell-based, human
Excerpt: as §2
Next, the fluorescent dye 10-N-Nonyl-Acridine Orange (NAO) was applied to measure reactive oxygen species (ROS) generation at mitochondrial levels. […]

With CCN(C)C(=O)Oc1nc(-c2ccccc2)nc2ccccc12 [Compound 1, 2-phenylquinazolin-4-yl ethyl(methyl)carbamate] the adverse effects (R6-2 mice) was “No adverse effects”, the “protection against cell death induced by glutamate” value (U118MG cells [1]; U118MG cells, 35 mM glutamate, compound 1-100 μM) was “significantly protects; also recorded: protect better and more consistently; also recorded: significantly reduces glutamate-induced cell death levels” and the “Protection against glutamate-induced cell death” value (U118MG cells [1]; cell culture, grade in words) was “Excellent”. For the same molecule, the “lethal effect of compound by itself” value (U118MG cells [1]; compound alone, no glutamate) was “only very little lethal effect by itself”, the stability on storage (Stability on storage) was “stable over several months of storage” and the “differentiation of PC12 cells toward neuronal type cells” value (PC12 cells) was “able to transform PC-12 cells in cell culture to neuron like cells; also recorded: can induce differentiation”. For the same molecule, the “ROS generation at mitochondrial levels induced by glutamate” value (U118MG cells [2]) was “prevents ROS generation” and the “ROS generation at mitochondrial levels induced by glutamate” value (U118MG cells [2]; listed as Cpd 1) was “attenuated”.
